{"source": "patent US20230190797A1", "about": "“COMPOSITIONS AND METHODS FOR ADOPTIVE CELL THERAPY” (MEMORIAL SLOAN KETTERING CANCER CENTER, priority 2017, published 2023)", "key": {"[1]": {"experiment": "Cell permeability in CACO-2 cells", "assay_type": "in vitro ADME", "conditions": "human, read-out: Efflux Ratio (B-A/A-B)"}, "[2]": {"experiment": "in vivo", "conditions": "NOD, mouse"}, "[3]": {"system": "HEK293T cells expressing CPG2 variants", "experiment": "Viability of HEK293T cells expressing CPG2 variants exposed to prodrug", "assay_type": "cell-based, human", "description": "FIG. 9 provides exemplary data showing that that cell-secreted and transmembrane CPG2 expressed in stably transfected cells activates an AIS prodrug. Expression of CPG2 without a signal peptide (CPG2nosigp) was employed as a control. 293t cells stably transfected with CPG2 variants were exposed to P-AMS (1 μM) for 48 hours and analyzed by bright field microscopy (FIG. 9A). Cells were exposed to varying concentrations of P-AMS and cell viability was analyzed at 48 hr post treatment (FIG. 9B).\nExpression of CPG2 without a signal peptide (CPG2nosigp) was employed as a control. HEK293t cells stably transfected with CPG2 variants were exposed to P-AMS (1 μM) for 48 hours and analyzed by bright field microscopy (FIG. 9A). Cells were exposed to varying concentrations of P-AMS and cell viability was analyzed at 48 hr post treatment (FIG. 9B)."}, "[4]": {"conditions": "mouse, in vivo"}, "[5]": {"system": "endogenous glutamate carboxypeptidase expressed in human prostate cells", "experiment": "Prodrug stability towards endogenous glutamate carboxypeptidase, LNCap viability", "assay_type": "cell-based", "text": "This prodrug/drug combination was chosen for further development of the SEAKER systems."}, "[6]": {"system": "primary T-cells", "experiment": "CellTitre Glo in vitro cytotoxicity, primary T cells", "assay_type": "cell-based", "conditions": "prodrug versus AMS"}, "[7]": {"system": "SET2 cells", "experiment": "SET2 viability with prodrug plus enzyme or enzyme-containing supernatant", "assay_type": "cell-based", "conditions": "increasing prodrug", "description": "Recombinant CPG2 protein was initially synthesized, purified (FIGS. 18A and 18B), and incubated with increasing concentrations of prodrug in a glutamate release assay (FIG. 17C). Mass spectrometry was used to determine that the glutamate moiety was released from all of the glutamate prodrugs.\nCell viability was measured by CellTitre-Glo® luminescence assay.\nTo determine to respective enzyme output of the Beta-lactamase constructs relative to the previous CPG2 constructs, a quantitative sandwich ELISA was used to determine the concentration (ng/mL) of purified recombinant CPG2, and a quantitative nitrocefin assay was used to determine the concentration (ng/mL) of purified recombinant Beta-lactamase (FIG. 25A). Cell viability was measured by CellTitre-Glo® luminescence in the presence of prodrug (glut-AMS or ceph-AMS) and varying concentrations of purified recombinant CPG2 or Beta-lactamase (FIG. 25B)."}, "[8]": {"system": "HEK293T (kidney)", "experiment": "CellTitre Glo in vitro cytotoxicity, HEK293T", "assay_type": "cell-based, human", "conditions": "prodrug versus AMS"}, "[9]": {"system": "myeloid leukemia cell line SET2", "experiment": "Cytotoxicity, SET2", "assay_type": "cell-based", "conditions": "Set2, prodrug versus AMS"}}, "note": "Where two headings read alike, the source gives them in different places.", "data": [{"smiles": "CN(C)C(=O)C(CCN1CCC(O)(c2ccc(Cl)cc2)CC1)(c1ccccc1)c1ccccc1", "note": "[Loperamide]", "values": [{"measurement": "efflux ratio", "setting": "[1]; Caco-2, with Ver (concentration not stated), + Ver", "value": 0.7}, {"measurement": "efflux ratio", "setting": "[1]; Caco-2, without Ver", "value": 7.7}]}, {"smiles": "NS(=O)(=O)OC[C@H]1O[C@@H](n2cnc3c(NC(=O)N[C@@H](CCC(=O)O)C(=O)O)ncnc32)[C@H](O)[C@@H]1O", "note": "[P-AMS, ((9-((2R,3R,4S,5R)-3,4-dihydroxy-5-((sulfamoyloxy)methyl)tetrahydrofuran-2-yl)-9H-purin-6-yl)carbamoyl)-L-glutamic acid]", "values": [{"measurement": "half-life", "setting": "[2]", "value": "30 to 40", "unit": "min"}, {"measurement": "activation of prodrug by cells expressing CPG intracellularly", "setting": "[3]; HEK293T cells expressing CPG intracellularly", "value": "not activated"}, {"measurement": "cell death of cells expressing secreted or transmembrane CPG2", "setting": "[3]; stably transfected HEK293T, cell-secreted and transmembrane CPG2, 48 hr, no-signal-peptide control did not", "value": "significant cell death"}, {"measurement": "toxicity in mice", "setting": "[4]", "value": "non-toxic"}, {"measurement": "stability in presence of endogenous glutamate carboxypeptidase", "setting": "[5]", "value": "remained stable"}]}, {"smiles": "Nc1ncnc2c1ncn2[C@@H]1O[C@H](COS(=O)(=O)NCC2=C(C(=O)O)N3C(=O)[C@@H](NC(=O)Cc4cccs4)[C@H]3SC2)[C@@H](O)[C@H]1O", "note": "[ceph-AMS]", "values": [{"measurement": "Selective Index, Human T cell", "setting": "[6]", "value": ">6"}, {"measurement": "SET2 cell viability with Beta-lactamase supernatant", "setting": "[7]", "value": "significant decrease in cell viability"}, {"measurement": "Selective Index, HEK293t", "setting": "[8]", "value": "~3"}, {"measurement": "Selective Index, Set2", "setting": "[9]", "value": "~64"}]}]}
